Results on seven compounds are retold here after patent US11905294B2, “Imidazo[1,5-a]pyrazine derivatives as PI3Kδ inhibitors” (BEIGENE, LTD., priority 2017, dated 2024).

One data set has as its target PI3K (p110δ/p85α) (Homo sapiens, UniProt O00329). As to the kind of experiment: PI3Kδ assay (ADP-Glo Kinase Assay). Conditions: recombinant enzyme; IC50 (nM) or max inhibition (%) at 0.5 μM. Type of data set: biochemical. In outline:
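Recombinant p110δ/p85α with lipid substrate and serially diluted compound, 0.5 hr RT preincubation; ATP-started reaction ran 1 hr at RT. ADP formed read by ADP-Glo luminescence; IC50 from four-parameter logistic fit of residual activity.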

Another data set has as its target PI3K (p110α/p85α) (Homo sapiens, UniProt P42336). As to the kind of experiment: PI3Kα assay (ADP-Glo Kinase Assay). In kind it is biochemical. Conditions: recombinant enzyme; IC50 (nM) or max inhibition (%) at 0.5 μM. A general note: ADP-Glo turns the ADP formed in a reaction into a luminescent signal.
The target of the next data set is PI3K (p110β/p85α) (Homo sapiens, UniProt P42338). As to the kind of experiment: PI3Kβ assay (ADP-Glo Kinase Assay). Type of data set: biochemical.
PI3K (p110β/p85α), sequence (P42338 whole entry): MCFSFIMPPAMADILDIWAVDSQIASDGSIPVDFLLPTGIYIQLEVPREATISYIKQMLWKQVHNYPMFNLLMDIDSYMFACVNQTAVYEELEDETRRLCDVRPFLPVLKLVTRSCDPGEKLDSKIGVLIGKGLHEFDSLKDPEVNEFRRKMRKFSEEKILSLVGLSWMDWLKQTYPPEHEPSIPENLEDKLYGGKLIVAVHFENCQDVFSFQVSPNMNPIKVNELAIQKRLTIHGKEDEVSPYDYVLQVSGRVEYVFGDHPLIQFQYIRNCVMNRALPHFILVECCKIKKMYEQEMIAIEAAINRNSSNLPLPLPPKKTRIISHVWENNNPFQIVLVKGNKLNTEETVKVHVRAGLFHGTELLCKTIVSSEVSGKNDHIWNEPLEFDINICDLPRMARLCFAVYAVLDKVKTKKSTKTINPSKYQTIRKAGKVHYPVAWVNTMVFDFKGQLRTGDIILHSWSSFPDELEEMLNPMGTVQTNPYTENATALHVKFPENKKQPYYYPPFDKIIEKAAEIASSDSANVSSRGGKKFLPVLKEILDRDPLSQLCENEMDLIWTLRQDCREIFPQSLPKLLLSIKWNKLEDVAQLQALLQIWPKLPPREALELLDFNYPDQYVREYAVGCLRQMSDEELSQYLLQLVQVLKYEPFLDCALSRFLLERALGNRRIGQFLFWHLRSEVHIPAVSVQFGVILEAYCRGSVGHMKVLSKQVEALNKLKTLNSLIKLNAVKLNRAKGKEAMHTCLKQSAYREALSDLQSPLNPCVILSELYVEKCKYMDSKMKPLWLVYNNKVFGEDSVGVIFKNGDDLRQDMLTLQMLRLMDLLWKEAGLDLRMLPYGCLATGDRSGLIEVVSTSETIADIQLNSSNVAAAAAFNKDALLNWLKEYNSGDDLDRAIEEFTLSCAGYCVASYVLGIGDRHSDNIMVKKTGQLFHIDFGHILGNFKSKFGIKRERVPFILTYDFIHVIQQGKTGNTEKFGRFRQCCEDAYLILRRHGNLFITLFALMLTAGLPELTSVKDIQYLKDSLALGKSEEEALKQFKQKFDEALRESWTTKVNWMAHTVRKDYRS
PI3K (p110β/p85α), sequence (P27986 whole entry partner): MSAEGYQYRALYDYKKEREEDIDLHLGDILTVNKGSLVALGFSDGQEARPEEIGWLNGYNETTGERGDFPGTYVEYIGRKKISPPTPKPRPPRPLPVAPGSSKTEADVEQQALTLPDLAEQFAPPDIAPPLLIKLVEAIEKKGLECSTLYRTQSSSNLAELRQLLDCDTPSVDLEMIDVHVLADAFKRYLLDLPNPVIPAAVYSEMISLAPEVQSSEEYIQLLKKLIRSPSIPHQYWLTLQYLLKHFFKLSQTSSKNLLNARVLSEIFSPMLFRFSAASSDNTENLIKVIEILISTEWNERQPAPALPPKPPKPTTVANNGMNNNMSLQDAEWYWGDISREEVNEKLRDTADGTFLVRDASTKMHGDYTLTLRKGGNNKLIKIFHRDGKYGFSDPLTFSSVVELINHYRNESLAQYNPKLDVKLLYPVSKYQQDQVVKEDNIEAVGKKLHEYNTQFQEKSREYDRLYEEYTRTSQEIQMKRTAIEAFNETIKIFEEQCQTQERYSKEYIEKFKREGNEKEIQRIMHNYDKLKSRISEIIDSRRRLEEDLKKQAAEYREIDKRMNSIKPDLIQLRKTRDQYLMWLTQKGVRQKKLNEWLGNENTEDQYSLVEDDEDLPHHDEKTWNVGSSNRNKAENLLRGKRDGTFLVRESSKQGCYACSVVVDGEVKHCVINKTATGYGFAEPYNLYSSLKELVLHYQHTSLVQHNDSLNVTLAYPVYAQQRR
In a further data set the target is PI3K (p110γ) (Homo sapiens, UniProt P48736). As to the kind of experiment: PI3Kγ assay (ADP-Glo Kinase Assay). Type of data set: biochemical. Conditions: recombinant enzyme; IC50 (nM) or max inhibition (%) at 0.5 μM.
PI3K (p110γ), sequence (P48736 whole entry): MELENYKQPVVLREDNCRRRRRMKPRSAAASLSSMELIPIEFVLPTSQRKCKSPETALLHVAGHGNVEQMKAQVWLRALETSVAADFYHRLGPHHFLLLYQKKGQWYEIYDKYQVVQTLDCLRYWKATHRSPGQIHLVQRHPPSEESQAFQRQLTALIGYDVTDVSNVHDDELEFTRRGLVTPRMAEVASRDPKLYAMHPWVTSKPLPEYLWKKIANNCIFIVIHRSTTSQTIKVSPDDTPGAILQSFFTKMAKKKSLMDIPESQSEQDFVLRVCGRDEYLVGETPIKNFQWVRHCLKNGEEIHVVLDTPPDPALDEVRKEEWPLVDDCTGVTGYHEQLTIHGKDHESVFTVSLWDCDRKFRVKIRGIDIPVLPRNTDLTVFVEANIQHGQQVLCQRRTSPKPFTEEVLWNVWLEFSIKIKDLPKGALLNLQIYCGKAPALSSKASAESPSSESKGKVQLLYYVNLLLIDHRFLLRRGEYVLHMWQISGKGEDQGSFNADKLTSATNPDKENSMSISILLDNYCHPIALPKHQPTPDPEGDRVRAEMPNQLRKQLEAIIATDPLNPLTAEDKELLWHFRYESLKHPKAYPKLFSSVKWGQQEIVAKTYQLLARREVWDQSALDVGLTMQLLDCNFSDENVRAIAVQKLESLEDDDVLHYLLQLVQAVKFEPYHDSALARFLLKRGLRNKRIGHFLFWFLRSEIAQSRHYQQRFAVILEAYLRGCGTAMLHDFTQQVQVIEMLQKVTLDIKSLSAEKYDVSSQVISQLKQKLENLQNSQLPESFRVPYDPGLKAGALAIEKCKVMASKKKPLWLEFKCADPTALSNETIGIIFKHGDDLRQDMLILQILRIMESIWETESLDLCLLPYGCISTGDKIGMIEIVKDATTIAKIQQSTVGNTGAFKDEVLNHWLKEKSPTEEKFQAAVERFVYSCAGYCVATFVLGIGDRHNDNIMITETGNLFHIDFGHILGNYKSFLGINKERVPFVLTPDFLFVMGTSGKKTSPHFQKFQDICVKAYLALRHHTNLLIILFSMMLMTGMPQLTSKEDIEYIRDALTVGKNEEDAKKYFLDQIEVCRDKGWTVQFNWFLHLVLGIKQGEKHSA
Data set [1] in a line: Pharmacokinetic properties in Sprague-Dawley rats after intravenous (IV) and oral (PO) administration. Type of data set: in vivo. Conditions: rat; for AUC(0-inf) / clearance / half-life / Vd / Cmax / Tmax / bioavailability: male, Sprague-Dawley, plasma; for Vd: read-out: VdSS. The method, then: III. Pharmacokinetic Properties of Compounds in Sprague-Dawley Rats After Intravenous (IV) and Oral Administrations (PO)
The injection dosing solution was prepared as follows: 1.0 mg of a test compound was weighed and dissolved in 0.32 mL of dimethyl acetamide (DMA). The solution was then further diluted by 0.36 mL of ethanol and 0.32 mL of propylene glycol. The final concentration of the test compound was 1.0 mg·mL^−1.
The oral dosing solution was prepared as follows: 5.0 mg of a test compound was weighed and dispersed in […] of 0.5% methyl cellulose (MC). The final concentration of the test compound is 1 mg·mL^−1.
Male Sprague-Dawley rats (also summarized in Table 2) were housed in solid bottom polypropylene cages with sterilized bedding and receive sterilized diet and sterilized water. The room was controlled and monitored for humidity (targeted mean range 40% to 70%) and temperature (targeted mean range 18° C. to 26° C.) with 10 to 20 air changes/hour. The light cycle was maintained at 12-h light and 12-h dark. Only animals that appeared to be healthy were selected for this study based on overall health, body weight, or other relevant information.
Three rats were given a single IV dose of 1 mg·kg^−1 via tail vein injection and other three rats were given a single oral dose of 5 or 10 mg·kg^−1. The dosing solutions were freshly prepared prior to dose administration. The actual body weights and actual volume injected were recorded accordingly. Four hours after dosing, the rats were allowed to intake food.
Blood samples (˜150 μL) were collected at different times from the jugular vein catheter into EDTA-K2 coated tubes. Whole blood was processed by centrifugation at 3000 g for 10 min. Plasma samples were collected and kept at −80° C. freezer prior to analysis. The blood sampling time was recorded accordingly.
The dose samples of IV and PO were diluted with MeOH: H2O (4:1, v/v) to achieve the concentration of 2 μg·mL^−1, respectively. Then, 2.5 μL of the diluted samples were added with 47.5 μL blank plasma, and then were handled as the plasma sample procedure. An aliquot of 10 μL of the mixture was injected into the LC-MS/MS system.

Setting [2] is: read-out: Enzyme activity IC50 PI3Kβ.

Read-outs that look alike come from different tables or passages of the source.

PI3K (p110δ/p85α), sequence (O00329 whole entry): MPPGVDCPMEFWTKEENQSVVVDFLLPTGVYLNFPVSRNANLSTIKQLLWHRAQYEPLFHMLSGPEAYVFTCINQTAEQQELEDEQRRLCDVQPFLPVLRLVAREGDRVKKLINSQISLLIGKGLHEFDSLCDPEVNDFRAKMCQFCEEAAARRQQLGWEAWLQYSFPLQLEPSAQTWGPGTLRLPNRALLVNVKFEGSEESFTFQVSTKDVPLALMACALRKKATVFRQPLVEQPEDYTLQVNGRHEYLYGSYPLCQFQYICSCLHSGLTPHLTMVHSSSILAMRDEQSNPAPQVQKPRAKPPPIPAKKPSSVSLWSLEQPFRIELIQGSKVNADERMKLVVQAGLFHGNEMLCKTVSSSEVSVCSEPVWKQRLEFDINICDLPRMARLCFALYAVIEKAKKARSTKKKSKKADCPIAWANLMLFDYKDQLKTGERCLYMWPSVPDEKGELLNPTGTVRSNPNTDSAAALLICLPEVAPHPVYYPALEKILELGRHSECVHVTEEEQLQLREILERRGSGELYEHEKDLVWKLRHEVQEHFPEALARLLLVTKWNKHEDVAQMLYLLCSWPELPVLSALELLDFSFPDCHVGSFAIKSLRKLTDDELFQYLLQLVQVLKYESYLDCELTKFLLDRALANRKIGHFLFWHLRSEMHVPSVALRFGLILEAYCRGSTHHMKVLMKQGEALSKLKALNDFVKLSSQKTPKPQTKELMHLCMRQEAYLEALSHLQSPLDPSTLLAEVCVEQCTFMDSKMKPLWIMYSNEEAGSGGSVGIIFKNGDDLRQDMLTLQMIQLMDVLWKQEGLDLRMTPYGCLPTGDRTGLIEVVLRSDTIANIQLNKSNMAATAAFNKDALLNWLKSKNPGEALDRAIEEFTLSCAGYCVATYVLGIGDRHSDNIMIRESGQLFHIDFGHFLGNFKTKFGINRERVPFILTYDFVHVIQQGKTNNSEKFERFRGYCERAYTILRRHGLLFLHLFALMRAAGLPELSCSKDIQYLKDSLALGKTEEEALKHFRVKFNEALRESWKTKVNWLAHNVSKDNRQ
PI3K (p110δ/p85α), sequence (P27986 whole entry partner): as the sequence (P27986 whole entry partner) above
PI3K (p110α/p85α), sequence (P42336 whole entry): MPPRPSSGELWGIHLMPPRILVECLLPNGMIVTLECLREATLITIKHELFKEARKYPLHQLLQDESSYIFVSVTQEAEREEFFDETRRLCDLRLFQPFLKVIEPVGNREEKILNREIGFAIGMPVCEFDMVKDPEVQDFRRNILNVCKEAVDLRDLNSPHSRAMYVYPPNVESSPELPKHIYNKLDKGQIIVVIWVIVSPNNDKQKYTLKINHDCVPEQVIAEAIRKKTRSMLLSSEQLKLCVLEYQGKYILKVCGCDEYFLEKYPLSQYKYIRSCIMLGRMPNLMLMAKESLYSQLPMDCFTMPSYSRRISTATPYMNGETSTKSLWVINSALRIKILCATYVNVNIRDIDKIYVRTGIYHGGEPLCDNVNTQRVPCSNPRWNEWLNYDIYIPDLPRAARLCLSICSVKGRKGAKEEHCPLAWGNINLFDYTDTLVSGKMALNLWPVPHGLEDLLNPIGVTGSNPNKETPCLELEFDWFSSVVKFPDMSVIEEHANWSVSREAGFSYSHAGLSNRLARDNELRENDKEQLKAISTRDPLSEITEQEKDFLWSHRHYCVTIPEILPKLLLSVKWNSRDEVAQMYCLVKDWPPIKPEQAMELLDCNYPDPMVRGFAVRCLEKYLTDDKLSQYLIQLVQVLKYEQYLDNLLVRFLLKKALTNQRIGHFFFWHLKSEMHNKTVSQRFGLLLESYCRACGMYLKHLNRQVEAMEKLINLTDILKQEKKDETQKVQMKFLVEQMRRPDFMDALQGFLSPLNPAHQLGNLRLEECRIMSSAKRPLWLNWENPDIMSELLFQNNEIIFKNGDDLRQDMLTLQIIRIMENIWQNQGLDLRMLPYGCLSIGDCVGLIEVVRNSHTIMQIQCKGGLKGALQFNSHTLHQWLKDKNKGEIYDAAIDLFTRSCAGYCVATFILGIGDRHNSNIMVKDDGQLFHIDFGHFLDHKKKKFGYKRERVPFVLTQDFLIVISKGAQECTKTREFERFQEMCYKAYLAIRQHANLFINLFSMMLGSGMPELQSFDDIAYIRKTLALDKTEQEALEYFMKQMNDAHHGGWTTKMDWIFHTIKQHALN
PI3K (p110α/p85α), sequence (P27986 whole entry partner): as the sequence (P27986 whole entry partner) above

For orientation: IC50 means the midpoint of a concentration-inhibition curve. What is called AUC(0-inf) is total exposure, with the tail of the curve extrapolated. High values mean more exposure, low ones less exposure. The term half-life denotes the time needed for the level to fall by half in the phase considered. Low values mean rapid decline, high ones slow decline. By Cmax is commonly meant the highest concentration seen after dosing. In general, Tmax refers to the time at which the peak concentration occurs. A word on the bioavailability: it is dose-corrected exposure relative to a reference, in per cent. A high value points to much systemic uptake. Take `Cc1nc([C@@H](C)c2cc(Cl)c(F)c(C(=O)N[C@H]3CC[C@H](O)CC3)c2OC(C)C)n2ccnc(N)c12` [Compound 60, 3((S)-1-(8-amino-1-methylimidazo[1,5-a]pyrazin-3-yl)ethyl)-5-chloro-6-fluoro-N-((trans)-4-hydroxycyclohexyl)-2-isopropoxybenzamide]: on PI3K (p110δ/p85α), the IC50 amounted to 0.95 nM. In addition, the IC50 at PI3K (p110α/p85α) worked out at 11000 nM. For the same compound, the IC50 at PI3K (p110β/p85α) (setting [2]) is 35000 nM. Also, the IC50 on PI3K (p110γ) worked out at 6300 nM. Besides, in data set [1] (1 mg/kg, IV 1 mpk), the AUC(0-inf) was 218 ng·h/mL, the clearance was 76.6 mL/min/kg, the half-life is 0.6 h and the Vd turned out to be 3.3 L/kg. In addition, in data set [1] (5 mg/kg, PO 5 mpk), the AUC(0-inf) worked out at 159 ng·h/mL, the Cmax amounted to 133 ng/mL, the Tmax came to 0.3 h and the half-life is 2 h. This compound returned a bioavailability in data set [1] (5 mg·kg^−1, PO 5 mpk vs IV 1 mpk) of 14.6%.
In the case of `Cc1nc([C@@H](C)c2cc(Cl)c(F)c(C(=O)N3CC4(CCOC4)C3)c2OC(C)C)n2ccnc(N)c12` [Compound 68, (S)-(3-(1-(8-amino-1-methylimidazo[1,5-a]pyrazin-3-yl)ethyl)-5-chloro-6-fluoro-2-isopropoxyphenyl)(6-oxa-2-azaspiro[3.4]octan-2-yl)methanone], the IC50 at PI3K (p110δ/p85α) was determined as 1.7 nM; at PI3K (p110α/p85α), 40000 nM; on PI3K (p110β/p85α) (setting [2]), 23000 nM; on PI3K (p110γ), 4600 nM.
In the case of `CO[C@@H]1CCCN(C(=O)c2c(F)c(Cl)cc([C@H](C)c3nc(C)c4c(N)nccn34)c2OC(C)C)C1` [Compound 69, (3-((S)-1-(8-amino-1-methylimidazo[1,5-a]pyrazin-3-yl)ethyl)-5-chloro-6-fluoro-2-isopropoxyphenyl)((R)-3-methoxypiperidin-1-yl)methanone], the IC50 at PI3K (p110δ/p85α) is 2 nM; on PI3K (p110α/p85α), greater than 50000 nM; at PI3K (p110β/p85α) (setting [2]), greater than 50000 nM; at PI3K (p110γ), 5200 nM.
For `CO[C@H]1CCN(C(=O)c2c(F)c(Cl)cc([C@H](C)c3nc(C)c4c(N)nccn34)c2OC(C)C)C1` [Compound 70, (3-((S)-1-(8-amino-1-methylimidazo[1,5-a]pyrazin-3-yl)ethyl)-5-chloro-6-fluoro-2-isopropoxyphenyl)((S)-3-methoxypyrrolidin-1-yl)methanone], the IC50 was 1.9 nM on PI3K (p110δ/p85α), 41000 nM on PI3K (p110α/p85α), greater than 50000 nM at PI3K (p110β/p85α) (setting [2]) and 6700 nM on PI3K (p110γ).
As for `Cc1nc([C@@H](C)c2cc(Cl)c(F)c(C(=O)N[C@H]3CC[C@H](O)C3)c2OC(C)C)n2ccnc(N)c12` [Compound 71, 3-((S)-1-(8-amino-1-methylimidazo[1,5-a]pyrazin-3-yl)ethyl)-5-chloro-6-fluoro-N-((1S,3S)-3-hydroxycyclopentyl)-2-isopropoxybenzamide], the IC50 at PI3K (p110δ/p85α) was 1.4 nM; on PI3K (p110α/p85α), 14000 nM; on PI3K (p110β/p85α) (setting [2]) it was 13000 nM; at PI3K (p110γ) it was 3400 nM.
Turning to `Cc1nc([C@@H](C)c2cc(Cl)c(F)c(C(=O)NCCN3CCN(C)CC3)c2OC(C)C)n2ccnc(N)c12` [Compound 73, (S)-3-(1-(8-amino-1-methylimidazo[1,5-a]pyrazin-3-yl)ethyl)-5-chloro-6-fluoro-2-isopropoxy-N-(2-(4-methylpiperazin-1-yl)ethyl)benzamide], the IC50 at PI3K (p110δ/p85α) came to 2.8 nM. Besides, at PI3K (p110α/p85α), the IC50 is 14000 nM. For the same compound, at PI3K (p110β/p85α) (setting [2]), the half-inhibitory concentration (IC50) came out at 14000 nM. The IC50 on PI3K (p110γ) turned out to be 9500 nM. Besides, in data set [1] (1 mg/kg, IV 1 mpk), the AUC(0-inf) was found to be 194 ng·h/mL, the clearance was 86.6 mL/min/kg, the half-life is 8.2 h and the Vd stood at 59.4 L/kg. In data set [1] (10 mg/kg, PO 10 mpk), the area under the curve AUC(0-inf) stood at 918 ng·h/mL, the concentration peaked (Cmax) at 220 ng/mL, the Tmax stood at 1.5 h and the half-life was 5.6 h. The same compound had a bioavailability in data set [1] (10 mg·kg^−1, PO 10 mpk vs IV 1 mpk) of 34.9%. Besides, in data set [1] (in vivo), the “half-life (in words)” value is recorded as “unexpected long half-life”.
Consider “(S)-3-(1-(8-amino-1-methylimidazol[1,5-a]pyrazin-3-yl)ethyl)-5-chloro-6-fluoro-2-isopropoxy-N-(4-methoxyphenyl)benzamide [Compound 29]”, for which the IC50 amounted to 1.1 nM on PI3K (p110δ/p85α); 11000 nM at PI3K (p110α/p85α); 9900 nM at PI3K (p110β/p85α) (recombinant enzyme, 2 hrs kinase reaction, IC50 (nM) or max inhibition (%) at 0.5 μM); 2100 nM at PI3K (p110γ).
